From patent publication US20050112573A1, “Method of detecting toxic substance” (priority 2001, published 2005)

Tested on: yeast genes (level of expressed mRNA)
Test: DNA chip analysis of expressed mRNA of yeast genes after 2 h culture with a toxic chemical substance
Type: cell-based, Saccharomyces cerevisiae S288C
How it was run: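 S. cerevisiae S288C grown at 25° C in YPD; toxicant added at log phase at growth-inhibitory, non-lethal levels for 2 h, untreated cells as control. Poly(A) mRNA reverse-transcribed with Cy3/Cy5-dUTP, hybridized to whole-genome chip at 65° C >12 h; value is fluorescence ratio versus untreated.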

## γ-hexachlorocyclohexane [(7)]
Yeast gene YKL096W
  The level of expressed mRNA in the presence of chemical substance/The level of expressed mRNA in the absence of chemical substance: 0.2
Yeast gene YKL139W
  The level of expressed mRNA in the presence of chemical substance/The level of expressed mRNA in the absence of chemical substance: 2.6
Yeast gene YKL151C, ratio to control without chemical substance, 2 h culture
  The level of expressed mRNA in the presence of chemical substance/: 5.6
Yeast gene YKL153W, ratio to control without chemical substance, 2 h culture
  The level of expressed mRNA in the presence of chemical substance/: 1.1
Yeast gene YKL165C
  The level of expressed mRNA in the presence of chemical substance/The level of expressed mRNA in the absence of chemical substance: 2.1
Yeast gene YKL193C
  The level of expressed mRNA in the presence of chemical substance/The level of expressed mRNA in the absence of chemical substance: 2.1
Yeast gene YKL195W, ratio to control without chemical substance, 2 h culture
  The level of expressed mRNA in the presence of chemical substance/: 2.1
Yeast gene YKR009C
  The level of expressed mRNA in the presence of chemical substance/in the absence of chemical substance: 1.0
Yeast gene YKR014C
  The level of expressed mRNA in the presence of chemical substance/The level of expressed mRNA in the absence of chemical substance: 1.7
Yeast gene YKR091W, ratio to control without chemical
  The level of expressed mRNA in the presence of chemical substance/: 1.3
Yeast gene YLR054C, ratio to control without chemical substance, 2 h culture
  The level of expressed mRNA in the presence of chemical substance/: 1.1
Yeast gene YLR120C
  The level of expressed mRNA in the presence of chemical substance/The level of expressed mRNA in the absence of chemical substance: 1.5
Yeast gene YLR136C
  The level of expressed mRNA in the presence of chemical substance/The level of expressed mRNA in the absence of chemical substance: 3.9
Yeast gene YLR149C, ratio to control without chemical substance, 2 h culture
  The level of expressed mRNA in the presence of chemical substance/: 1.6
Yeast gene YLR152C, ratio to control without chemical substance, 2 h culture
  The level of expressed mRNA in the presence of chemical substance/: 1.4
Yeast gene YLR178C
  The level of expressed mRNA in the presence of chemical substance/The level of expressed mRNA in the absence of chemical substance: 3.3
Yeast gene YLR194C, ratio to control without chemical
  The level of expressed mRNA in the presence of chemical substance/: 1.0
Yeast gene YLR250W
  The level of expressed mRNA in the presence of chemical substance/The level of expressed mRNA in the absence of chemical substance: 1.9
Yeast gene YLR324W, ratio to control without chemical substance, 2 h culture
  The level of expressed mRNA in the presence of chemical substance/: 1.0
Yeast gene YLR327C
  The level of expressed mRNA in the presence of chemical substance/The level of expressed mRNA in the absence of chemical substance: 5.7
Yeast gene YLR350W, ratio to control without chemical substance, 2 h culture
  The level of expressed mRNA in the presence of chemical substance/: 1.2
Yeast gene YLR351C
  The level of expressed mRNA in the presence of chemical substance/in the absence of chemical substance: 1.4
Yeast gene YLR356W
  The level of expressed mRNA in the presence of chemical substance/The level of expressed mRNA in the absence of chemical substance: 1.1
Yeast gene YLR362W
  The level of expressed mRNA in the presence of chemical substance/The level of expressed mRNA in the absence of chemical substance: 1.9
Yeast gene YLR375W
  The level of expressed mRNA in the presence of chemical substance/in the absence of chemical substance: 0.9
Yeast gene YLR387C, ratio to control without chemical substance, 2 h culture
  The level of expressed mRNA in the presence of chemical substance/: 1.1
Yeast gene YLR391W
  The level of expressed mRNA in the presence of chemical substance/The level of expressed mRNA in the absence of chemical substance: 0.7
Yeast gene YLR429W
  The level of expressed mRNA in the presence of chemical substance/The level of expressed mRNA in the absence of chemical substance: 1.3
Yeast gene YLR460C, ratio to control without chemical substance, 2 h culture
  The level of expressed mRNA in the presence of chemical substance/: 1.1
Yeast gene YML117W, ratio to control without chemical substance, 2 h culture
  The level of expressed mRNA in the presence of chemical substance/: 0.7
Yeast gene YMR004W
  The level of expressed mRNA in the presence of chemical substance/The level of expressed mRNA in the absence of chemical substance: 1.2
Yeast gene YMR009W, ratio to control without chemical substance, 2 h culture
  The level of expressed mRNA in the presence of chemical substance/: 1.9
Yeast gene YMR067C, ratio to control without chemical substance, 2 h culture
  The level of expressed mRNA in the presence of chemical substance/: 1.2
Yeast gene YMR090W, ratio to control without chemical substance, 2 h culture
  The level of expressed mRNA in the presence of chemical substance/: 2.7
Yeast gene YMR094W
  The level of expressed mRNA in the presence of chemical substance/The level of expressed mRNA in the absence of chemical substance: 0.8
Yeast gene YMR095C, ratio to control without chemical
  The level of expressed mRNA in the presence of chemical substance/: 1.2
Yeast gene YMR097C, ratio to control without chemical substance, 2 h culture
  The level of expressed mRNA in the presence of chemical substance/: 1.5
Yeast gene YMR102C, ratio to control without chemical substance, 2 h culture
  The level of expressed mRNA in the presence of chemical substance/: 1.8
Yeast gene YMR104C
  The level of expressed mRNA in the presence of chemical substance/The level of expressed mRNA in the absence of chemical substance: 1.5
Yeast gene YMR107W, ratio to control without chemical substance, 2 h culture
  The level of expressed mRNA in the presence of chemical substance/: 1.2
Yeast gene YMR180C, ratio to control without chemical substance, 2 h culture
  The level of expressed mRNA in the presence of chemical substance/: 1.7
Yeast gene YMR184W, ratio to control without chemical substance, 2 h culture
  The level of expressed mRNA in the presence of chemical substance/: 1.6
Yeast gene YMR191W, ratio to control without chemical substance, 2 h culture
  The level of expressed mRNA in the presence of chemical substance/: 2.0
Yeast gene YMR226C
  The level of expressed mRNA in the presence of chemical substance/The level of expressed mRNA in the absence of chemical substance: 1.8
Yeast gene YMR267W
  The level of expressed mRNA in the presence of chemical substance/in the absence of chemical substance: 1.2
Yeast gene YMR275C
  The level of expressed mRNA in the presence of chemical substance/The level of expressed mRNA in the absence of chemical substance: 0.8
Yeast gene YMR276W
  The level of expressed mRNA in the presence of chemical substance/The level of expressed mRNA in the absence of chemical substance: 1.1
Yeast gene YMR278W
  The level of expressed mRNA in the presence of chemical substance/in the absence of chemical substance: 1.8
Yeast gene YMR293C
  The level of expressed mRNA in the presence of chemical substance/in the absence of chemical substance: 1.2
Yeast gene YMR295C, ratio to control without chemical substance, 2 h culture
  The level of expressed mRNA in the presence of chemical substance/: 1.3
Yeast gene YMR314W
  The level of expressed mRNA in the presence of chemical substance/The level of expressed mRNA in the absence of chemical substance: 1.1
Yeast gene YMR316W, ratio to control without chemical substance, 2 h culture
  The level of expressed mRNA in the presence of chemical substance/: 2.0
Yeast gene YNL006W
  The level of expressed mRNA in the presence of chemical substance/The level of expressed mRNA in the absence of chemical substance: 1.6
Yeast gene YNL007C
  The level of expressed mRNA in the presence of chemical substance/The level of expressed mRNA in the absence of chemical substance: 1.2
Yeast gene YNL044W, ratio to control without chemical substance, 2 h culture
  The level of expressed mRNA in the presence of chemical substance/: 0.9
